Measured values as given in EP1978972B1, “USE OF ALKYLGLUCOSIDE ESTERS AS BETA-DEFENSIN INDUCERS” (Pierre Fabre Dermo-Cosmétique, priority 2006, dated 2007).
Like-named read-outs stand apart in the source and are kept apart here.

Experiments:
hBD-2 [1] = assay: cells; type: cell-based, human; conditions: HaCat; for induction de la synthèse du peptide hBD-2: starting materials of the enzymatic synthesis, in words
Source text: (§1) Il est connu de WO 97/45101 que les esters d'α-alkylglucoside peuvent être utilisés comme agent anti-microbien et/ou anti-fongique pour agir en tant que conservateur dans une composition, pour la préserver d'un développement microbien. D'autre part, les propriétés moussantes des esters de méthyl glucose sont décrites dans Desai et al (« Sofw Journal Seife, Oele, Fette, Wachse, Verlag für chemische Industrie » 1991). • Modèle cellulaire : lignée cellulaire HaCat, kératynocytes d'origine humaine, primoculture de kératinocytes humains • Modèle tissulaire : • Explants de peau normale provenant de déchet opératoire de chirurgie esthétique • Explants de gencive normale provenant de déchet opératoire de chirurgie implantatoire ou d'épithélium gingival reconstruit à partir de cellules épithéliales orales primaires • ➢ Les cellules HaCat sont ensemencées et cultivées en plaque 6 puits à 200 000 cellules/puits sous un volume de 2 ml de milieu de culture DMEM 1640 : (Ref: Invitrogen) complémenté par 10 % de sérum de veau foetal (SVF, Ref : CH30160.02 Perbio-Hyclone) pendant 18 h (sur la nuit). • ➢ A T0 les cellules sont lavées avec du tampon Phosphate (PBS, Ref: 52100-039 Invitrogen) puis privées en sérum pour les rendre quiescentes pendant 24 h (ralentissement de leur croissance et élimination de toute trace de facteurs susceptibles de perturber les effets induits par les traitements ultérieurs). • ➢ A T0+24 h les cellules sont traitées par des cytokines pro-inflammatoires (TNF-α à 10 ng/ml, IL1-β à 10 ng/ml) ou des éléments bactériens (LPS à 50 ng/ml, SEB à 100 ng/ml) ou des actifs potentiels de type « alkyle mono- ou di-ester d'α,β-butylglucoside » dilués dans du DMEM (1 ml/puits); La durée du traitement est de 3 h à 37°C. • ➢ Les kératinocytes primaires sont préparés à partir de peau normale provenant de déchet opératoire de chirurgie esthétique. […]
La méthode de RT-PCR quantitative utilisée est décrite dans le matériel et méthode. […]

hBD-2 [2] = type: cell-based, human; conditions: skin explant, systemic, 3 µg/ml, 2 h and 15 h, in words
Source text: as §1, with “esthétique. Ils sont ensemencés et cultivés en plaque 24 puits à 60 000 cellules/puits sous un volume de 0,5 ml de milieu de culture KSFM (Ref : 37010 Invitrogen) complémenté par de l'EGF (Epidermal Growth Factor) à 1,5 ng/ml et du BPE (bovine pituitary extract) à 25 µg/ml pendant 24 h. • ➢ A J0, le milieu est remplacé par 0,5 ml de milieu KSFM complet, additionné de 1,2 nM de calcium. • ➢ A J+3, les cellules sont traitées par des cytokines pro-inflammatoires TNF-α et IL 1-β à 10 ng/ml ou des actifs potentiels de type « alkyle mono- ou di-ester d'α,β-butylglucoside » dilués dans 0,3 ml de milieu KSFM complet, en présence de 1,2 nM de calcium.” for “esthétique.”

S. aureus = assay: Adhesion of S. aureus on skin explant (modified Franz cell), count of adherent bacteria; type: cell-based, Staphylococcus aureus; conditions: topical 30 µg/ml
Source text: Pour révéler le complexe Antigène-Anticorps, le kit DAKO LSAB® (DAKO Corporation) est utilisé selon les recommandations du fournisseur. La révélation est réalisée à l'aide d'un substrat de la péroxydase : la 3,3'diaminobenzidine (DAB) (DAKO Corporation). La réaction enzymatique est révélée par une coloration brune. • ➢L'adhésion des micro-organismes est réalisée dans une cellule à double compartimentation, de type cellule de Franz modifiée. • ➢Une suspension de S.aureus (CIP 53.154) équivalente à 0,5.10^7 micro-organismes est introduite au sein du compartiment supérieur de la cellule. Le dispositif est incubé de 2 h à 37°C sous une atmosphère à 5 % de CO2. A la fin de cette période d'incubation, le surnageant est retiré afin d'éliminer les bactéries non adhérentes. Les échantillons de peau sont ensuite rincés deux fois avec 1 ml de mélange DMEM/HAMF12. Un dénombrement bactérien à l'issue de cette étape donne la proportion de bactéries ayant adhéré à l'explant (T+2 h). Un témoin est réalisé dans le but de déterminer l'adhésion non spécifique des bactéries. • ➢La stimulation de l'expression des β-défensines cutanées précède l'étape d'adhésion. Son objectif est d'étudier l'impact de l'induction des peptides antimicrobiens par des actifs potentiels de type « alkyle mono- ou di-ester d'α,β-butylglucoside » sur l'adhésion de souches bactériennes. Le traitement est effectué en topique ou en systémique. Le temps de stimulation des explants cutanés est de 24 h à 37°C en présence de 5 % de CO2.
Pour analyse, les explants sont retirés de leur cellule, des punchs de diamètres différents (3 mm, 4 mm et 6 mm) sont effectués pour un test MTT de survie, les marquages immuno-histologiques et les analyses des transcrits par RT-PCR. Le reste de peau est utilisé pour une estimation de la flore bactérienne adhérente.
Le dénombrement de la flore bactérienne adhérente exogène par unité de surface de peau a été effectué selon deux méthodes : • par dénombrement bactérien sur milieu solide • par comptage de la radioactivité émise (la souche contaminante étant marquée au H^3) est effectuée. […]
Après une application topique de 5 h et plusieurs rinçages de la surface épidermique d'un explant cutané, l'effet du traitement par l'α,β-LBG brut sur l'adhésion de S.aureus sur ce même explant a été quantifié par le dénombrement des germes adhérents à l'issue d'une mise en contact de 2 h. […]
Après application topique et plusieurs rinçages de la surface épidermique des explants cutanés, l'effet du traitement par les isoformes de l'ester de laurate de butylglucoside pur à 90 %, séparées, α seul, β seul, ou en mélange α,β-LBG (56 % α/44 % β) sur l'adhésion de S. aureus sur l'épiderme a été comparé après quantification des germes adhérents par dénombrement.

CCCCCCCCCCCC(=O)O [Acide Laurique]
induction de la synthèse du peptide hBD-2 (hBD-2 [1]): ne provoquent pas une induction
fold induction at 10 µg/mL (hBD-2 [1]; Homo sapiens, hBD-2 mRNA, 3 h, 10 µg/ml, vs unstimulated control, read-out: Facteur d'induction (FI)): 1.1

laurate de butylglucoside [α-LBG pur]
induction de l'expression du gène hBD-2 (hBD-2 [2]; listed as α-LBG pure): ne présente pas d'activité

laurate de butylglucoside [αβ-LBG pur]
baisse moyenne de l'adhésion de S. aureus (S. aureus; LBG pur à 90 %, vs untreated control): ~19%
induction de l'expression du gène hBD-2 (hBD-2 [2]): potentiel inducteur significatif surtout après une durée de traitement longue

laurate de butylglucoside [β-LBG pur]
limitation de l'adhésion de S. aureus (S. aureus; comparison of isoforms, in words): en moyenne plus actif sur la limitation de l'adhésion de S. aureus que l'isoforme α-LBG

αβ-butylglucoside
induction de la synthèse du peptide hBD-2 (hBD-2 [1]): ne provoquent pas une induction
